Experimental data: US7993916B2, “Methods for increasing definitive endoderm production” (Viacyte, Inc., priority 2007, dated 2011)

System: hESCs (CyT203 p36)
Conditions: EDTA 0.075 mM, PBS−/− wash, about 18 hr, activin A 100 ng/ml and Wnt3a 25 ng/ml, RPMI without FBS
Procedure: Cell cultures and culture conditions were substantially similar to that described above and in D'Amour et al. 2005 and 2006 supra. […] Samples of undifferentiated hESCs were taken prior to the start of the differentiation procedure. Plates were briefly washed with 2 ml of PBS either containing Ca^2+ or Mg^2+ or without Ca^2+ and Mg^2+ (PBS^−/−). In addition, the one plate which was washed with PBS^−/− also received ethylenediamine tetraacetic acid (EDTA) at 0.075 mM to reduce the concentration of Ca^2+ ions present in the media.

For `O=C(O)CN(CCN(CC(=O)O)CC(=O)O)CC(=O)O` [EDTA, ethylenediamine tetraacetic acid], the “increase in expression for the DE marker (CER)” value was “three-fold” and the “increase in gene expression for mesendoderm markers (BRACH, NODAL)” value was “two-fold”.
